Experimental data from publication PMC9687209 (2022).

Experiments:
[1] = tested on: C100/htC4 (DNA, aptamer) ATTGGCACTCCACGCATAGGGAATGGACCCGGTATAATTCCCTCAAGAGTGCCAATTTCACCTATGCGTGCTACCGTGAA; experiment: BLI; conditions: 177.7 mM Na+, 0.492 mM Mg2+; 0.2 g/L KCl, 0.2 g/L KH2PO4, 0.1 g/L CaCl2; selection buffer (NaCl/phosphate), pH 7.4, 25 °C
[2] = tested on: C1-d (DNA, aptamer) CCGAGGTGTGTACACCGTG; experiment: BLI response, four-parameter logistic fit; conditions: 177.7 mM Na+, 0.492 mM Mg2+; 0.2 g/L KCl, 0.2 g/L KH2PO4, 0.1 g/L CaCl2; selection buffer, pH 7.4, 25 °C; calibration curve 0.625-30 μM DA; Hill slope 1.351
[3] = tested on: C2 (DNA, aptamer) ATTGGCACTCCACGCATAGGGGATAACGGGTTGATGGTACTTCTATCTATCGCGTTGTGCCCTATGCGTGCTACCGTGAA; experiment: BLI; conditions: 177.7 mM Na+, 0.492 mM Mg2+; 0.2 g/L KCl, 0.2 g/L KH2PO4, 0.1 g/L CaCl2; selection buffer (NaCl/phosphate), pH 7.4, 25 °C
[4] = tested on: C1-d (DNA, aptamer) CCGAGGTGTGTACACCGTG; experiment: BLI; conditions: 177.7 mM Na+, 0.492 mM Mg2+, 0.2 g/L KCl, 0.2 g/L KH2PO4, 0.1 g/L CaCl2, pH 7.4, 25 °C
[5] = tested on: C53 (DNA, aptamer) ATTGGCACTCCACGCATAGGGTAAAGTACGTATGTCATGCACATGCCGTATTCTCTTTGCCCTATGCGTGCTACCGTGAA; experiment: BLI; conditions: 177.7 mM Na+, 0.492 mM Mg2+; 0.2 g/L KCl, 0.2 g/L KH2PO4, 0.1 g/L CaCl2; selection buffer (NaCl/phosphate), pH 7.4, 25 °C; NB [sic]; highest concentration not stated
[6] = tested on: C87 (DNA, aptamer) ATTGGCACTCCACGCATAGGGGAAGCTGCTCTCATCAATAAAAAATGAGACGGAGGTTACCCTATGCGTGCTACCGTGAA; experiment: BLI; conditions: 177.7 mM Na+, 0.492 mM Mg2+; 0.2 g/L KCl, 0.2 g/L KH2PO4, 0.1 g/L CaCl2; selection buffer (NaCl/phosphate), pH 7.4, 25 °C
[7] = tested on: C58/htC3 (DNA, aptamer) ATTGGCACTCCACGCATAGGCCAAGGTGTCAATCTTGAATAGCTGTGTAACGTCTATGTGCCTATGCGTGCTACCGTGAA; experiment: BLI; conditions: 177.7 mM Na+, 0.492 mM Mg2+; 0.2 g/L KCl, 0.2 g/L KH2PO4, 0.1 g/L CaCl2; selection buffer (NaCl/phosphate), pH 7.4, 25 °C
[8] = tested on: C1-s (DNA, aptamer) CCAACATGATGTTCCGTCATTTTGAGGTGTGTACACCGTG; experiment: BLI; conditions: 177.7 mM Na+, 0.492 mM Mg2+; 0.2 g/L KCl, 0.2 g/L KH2PO4, 0.1 g/L CaCl2; selection buffer (NaCl/phosphate), pH 7.4, 25 °C
[9] = tested on: htC5 (DNA, aptamer) ATTGGCACTCCACGCATAGGGGAGGGCCGGTTGAACTGTAATGTGTAAACCACGCGCTACCCTATGCGTGCTACCGTGAA; experiment: BLI; conditions: 177.7 mM Na+, 0.492 mM Mg2+; 0.2 g/L KCl, 0.2 g/L KH2PO4, 0.1 g/L CaCl2; selection buffer (NaCl/phosphate), pH 7.4, 25 °C; NB [sic]; highest concentration not stated
[10] = tested on: C1-b (DNA, aptamer) GGTGTGTACACC; experiment: BLI; conditions: 177.7 mM Na+, 0.492 mM Mg2+; 0.2 g/L KCl, 0.2 g/L KH2PO4, 0.1 g/L CaCl2; selection buffer (NaCl/phosphate), pH 7.4, 25 °C
[11] = tested on: Random Sequence (DNA, single strand) ATTGGCACTCCACGCATAGGATTCCGGCTAATCGACTGACTGCCGGTACGATGCAGTCAGCCTATGCGTGCTACCGTGAA; experiment: BLI; conditions: 177.7 mM Na+, 0.492 mM Mg2+; 0.2 g/L KCl, 0.2 g/L KH2PO4, 0.1 g/L CaCl2; selection buffer, pH 7.4, 25 °C; NB [sic]; 6.25 μM tested in Figure 4
[12] = tested on: C116 (DNA, aptamer) ATTGGCACTCCACGCATAGGGATCTCATAACCAGTCTCTTTGACTGATGTTAGTAAGGTCCCTATGCGTGCTACCGTGAA; experiment: BLI; conditions: 177.7 mM Na+, 0.492 mM Mg2+; 0.2 g/L KCl, 0.2 g/L KH2PO4, 0.1 g/L CaCl2; selection buffer (NaCl/phosphate), pH 7.4, 25 °C
[13] = tested on: C1/htC1 (DNA, aptamer) ATTGGCACTCCACGCATAGGCCAACATGATGTTCCGTCATTTTGAGGTGTGTACACCGTGCCTATGCGTGCTACCGTGAA; experiment: BLI; conditions: 177.7 mM Na+, 0.492 mM Mg2+; 0.2 g/L KCl, 0.2 g/L KH2PO4, 0.1 g/L CaCl2; selection buffer (NaCl/phosphate), pH 7.4, 25 °C
[14] = tested on: C12/htC2 (DNA, aptamer) ATTGGCACTCCACGCATAGGGACATCGAGAAGAATCCTGATACGACTTGGCTTTGCTGGCCCTATGCGTGCTACCGTGAA; experiment: BLI; conditions: 177.7 mM Na+, 0.492 mM Mg2+; 0.2 g/L KCl, 0.2 g/L KH2PO4, 0.1 g/L CaCl2; selection buffer (NaCl/phosphate), pH 7.4, 25 °C
[15] = tested on: C66 (DNA, aptamer) ATTGGCACTCCACGCATAGGGGTGGTCTTCTGGGTAATCCCCGACTACCCTTATGCCGGCCCTATGCGTGCTACCGTGAA; experiment: BLI; conditions: 177.7 mM Na+, 0.492 mM Mg2+; 0.2 g/L KCl, 0.2 g/L KH2PO4, 0.1 g/L CaCl2; selection buffer (NaCl/phosphate), pH 7.4, 25 °C
[16] = tested on: C1-a (DNA, aptamer) CAACATGATGTTCCGTCATTTTG; experiment: BLI; conditions: 177.7 mM Na+, 0.492 mM Mg2+; 0.2 g/L KCl, 0.2 g/L KH2PO4, 0.1 g/L CaCl2; selection buffer (NaCl/phosphate), pH 7.4, 25 °C
[17] = tested on: C1-c (DNA, aptamer) CCAACATGATGTTCCGTCATTTTGAGCGTG; experiment: BLI; conditions: 177.7 mM Na+, 0.492 mM Mg2+; 0.2 g/L KCl, 0.2 g/L KH2PO4, 0.1 g/L CaCl2; selection buffer (NaCl/phosphate), pH 7.4, 25 °C

Row | KD [1] [µM] | EC50 [2] [µM] | KD [3] [µM] | KD ([4]; selection buffer (NaCl/phosphate), kon 2.94 × 10^5 1/Ms, kdis 5.13 × 10^-2 1/s) [µM] | binding [5] | KD [6] [µM] | KD [7] [µM] | KD [8] [µM] | binding [9] | KD [10] [µM] | binding [11] | KD [12] [µM] | KD [13] [µM] | KD [14] [µM] | KD [15] [µM] | KD [16] [µM] | KD [17] [µM] | binding ([4]; selection buffer, 6.25 μM tested) | SMILES
1 | 3.25 | 12.57 | 20.3 | 0.109 ± 0.00931 | no | 5.04 | 6.33 | 1.5 ± 0.113 | no | 0.167 ± 0.00933 | no | 11.7 | 1.69 | 5.21 | 22.7 | 6.9 ± 0.628 | 4.9 ± 0.312 |  | C/C(=C/C=C/[C@@H](C)C(=O)O)[C@H]1CN[C@H](C(=O)O)[C@H]1CC(=O)O
2 |  |  |  |  |  |  |  |  |  |  |  |  |  |  |  |  |  | no | C=C1[C@@H](O)[C@@H]2O[C@]3(CC[C@H](/C=C/[C@@H](C)[C@@H]4CC(C)=C[C@@]5(O[C@H](C[C@@](C)(O)C(=O)O)CC[C@H]5O)O4)O3)CC[C@H]2O[C@@H]1[C@@H](O)C[C@H](C)[C@H]1O[C@@]2(CCCCO2)CC[C@H]1C
